What was measured:
[1] = molecular target: T1, factor IIa (Homo sapiens, UniProt P00734); test: Measurement of anti-IIa activity using Biophen heparin anti-IIa; assay type: biochemical; conditions: Biophen heparin anti-IIa kit
T1 construct: purchased Hyphen BioMed Biophen heparin anti-IIa
Text: In general, anticoagulant activity is based on the activity of inhibiting blood coagulation factors. That is, when anticoagulant activity is high, a blood coagulation reaction is inhibited. Blood coagulation factors refer to the action system of a series of molecules in a living body for coagulating blood when bleeding etc. Successive activation of a large number of blood coagulation factors agglutinates fibrin, and stops bleeding in the bleeding area. Representative examples of blood coagulation factors include factor Xa and factor IIa. Blood coagulation can be inhibited by inhibiting the activity of these factors. The factor IIa inhibitory activity (anti-IIa activity) can be measured using Biophen heparin anti-IIa (manufactured by Hyphen BioMed). Measurement of Anti-IIa Activity The anti-IIa activity of pentosan polysulfate sodium was measured using Biophen heparin anti-IIa (manufactured by Hyphen BioMed).

[2] = test system: factor Xa; test: Measurement of anti-Xa activity using Test Team Heparin S; assay type: biochemical; conditions: Test Team Heparin S kit
Text: In general, anticoagulant activity is based on the activity of inhibiting blood coagulation factors. That is, when anticoagulant activity is high, a blood coagulation reaction is inhibited. Blood coagulation factors refer to the action system of a series of molecules in a living body for coagulating blood when bleeding etc. Successive activation of a large number of blood coagulation factors agglutinates fibrin, and stops bleeding in the bleeding area. Representative examples of blood coagulation factors include factor Xa and factor IIa. Blood coagulation can be inhibited by inhibiting the activity of these factors. Here, the factor Xa inhibitory activity (anti-Xa activity) can be measured using Test Team (registered trademark) Heparin S (manufactured by Sekisui Medical Co., Ltd.). Measurement of Anti-Xa Activity The anti-Xa activity of pentosan polysulfate sodium was measured using Test Team (registered trademark) Heparin S (manufactured by Sekisui Medical Co., Ltd.).

| Substance | Anti-IIa activity [1] | Anti-Xa activity [2] |
| --- | --- | --- |
| pentosan polysulfate sodium [Comparative Example 1, reference compound] | 0.0221 IU/mg | 0.0840 IU/mg |
| pentosan polysulfate sodium [Example 4] | 0.0934 IU/mg | 0.2419 IU/mg |
| pentosan polysulfate sodium [Example 3] | 0.0676 IU/mg | 0.2439 IU/mg |
| pentosan polysulfate sodium [Example 5] | 0.0976 IU/mg | 0.2297 IU/mg |
| pentosan polysulfate sodium [Example 2] | 0.1845 IU/mg | 0.2588 IU/mg |
| pentosan polysulfate sodium [Example 1] | 0.1405 IU/mg | 0.2047 IU/mg |

Source: patent US11312790B2, “Production method for pentosan polysulfate” (OJI HOLDINGS CORPORATION, priority 2016, dated 2022)
